# Results taken from paper PMC6812009, “Covalent Aurora A regulation by the metabolic integrator coenzyme A” (Redox Biology, 2019).
# Numbering of substitutions follows the chain as printed.
# Experiments:
# Type in all cases: binding
# [1] = molecular target: T1, T217E Aurora A (Homo sapiens, UniProt O14965, T217E); assay: Thermal shift assay (differential scanning fluorimetry); details: 5 mM ATP, 5 mM CoA or 0.1 mM MLN8237
# T1 construct: For enzyme and DSF assays, full-length human Aurora A and Aurora B and 1–43 TPX2 were produced; made in house; host or cells: E. coli
# T1 sequence (O14965 1-403 T217E): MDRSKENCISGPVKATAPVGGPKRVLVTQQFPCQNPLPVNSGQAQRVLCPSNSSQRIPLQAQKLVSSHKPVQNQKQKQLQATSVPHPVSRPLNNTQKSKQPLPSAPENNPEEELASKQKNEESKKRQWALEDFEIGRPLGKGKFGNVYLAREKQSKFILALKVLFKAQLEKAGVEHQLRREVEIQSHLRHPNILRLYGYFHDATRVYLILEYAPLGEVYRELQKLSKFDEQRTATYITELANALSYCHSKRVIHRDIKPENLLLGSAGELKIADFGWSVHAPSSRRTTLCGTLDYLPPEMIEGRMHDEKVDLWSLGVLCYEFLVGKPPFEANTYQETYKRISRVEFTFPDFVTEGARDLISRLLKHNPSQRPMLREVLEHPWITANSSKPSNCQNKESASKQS
# Method: (§1) Asp274Asn and Thr217Glu Aurora A mutants were generated by PCR-site directed mutagenesis, expressed and purified as described previously. Cys290Ala Aurora A was generated using standard procedures, and purified as described.
# (§2) Thermal-shift assays were performed with a StepOnePlus Real-Time PCR machine (Life Technologies) using Sypro-Orange dye (Invitrogen) and thermal ramping (0.3 °C in step intervals between 25 and 94 °C). All proteins were diluted to a final concentration of 5 μM in 50 mM Tris/HCl, pH 7.4 and 100 mM NaCl in the presence or absence of the indicated concentrations of ligand (final DMSO concentration no higher than 4 % v/v). CoA, dephosphoCoA or kinase inhibitors diluted from 10 mM DMSO stocks were assayed as described previously. Normalized data were processed using the Boltzmann equation to generate sigmoidal denaturation curves, and average Tm/ΔTm values calculated as previously described using GraphPad Prism software.
# [2] = molecular target: T2, C290A Aurora A (Homo sapiens, UniProt O14965, C290A); assay: as above; details: 5 mM ATP or 5 mM CoA
# T2 construct: For enzyme and DSF assays, full-length human Aurora A and Aurora B and 1–43 TPX2 were produced; made in house; host or cells: E. coli BL21 (DE3) pLysS
# Method: as §1, §2
# [3] = molecular target: T3, kinase-dead D274N (inactive) Aurora A (Homo sapiens, UniProt O14965, D274N); assay: as above; details: 5 mM ATP or 5 mM CoA; CoA DTT-dependent
# T3 construct: For enzyme and DSF assays, full-length human Aurora A and Aurora B and 1–43 TPX2 were produced; 6His (N); made in house; host or cells: E. coli
# Method: as §1, §2
# [4] = molecular target: T4, WT Aurora A (T288 phosphorylated, active) (Homo sapiens, UniProt O14965); assay: as above; details: 5 mM ATP, 5 mM CoA or 0.1 mM MLN8237; for CoA dependent on non-reducing conditions
# T4 construct: Bacterially expressed full-length His-Aurora A was used to determine the IC50 value for CoA; made in house; host or cells: E. coli BL21 (DE3) pLysS
# T4 sequence (O14965 1-403): T1 sequence (O14965 1-403 T217E) with E217T
# Method: as §1, §2
# [5] = molecular target: T5, Aurora B mutant (Homo sapiens, UniProt Q96GD4, E161T); assay: In vitro CoAlation assay
# T5 construct: For enzyme and DSF assays, full-length human Aurora A and Aurora B and 1–43 TPX2 were produced; made in house; host or cells: E. coli BL21 (DE3) pLysS
# Method: For CoAlation assays, 0.5 μg of purified recombinant preparations of wild type and mutant forms of His-Aurora A (Cys290Ala; Cys393Ala, Cys290/393Ala, Thr217Glu) and His-Aurora B (Glu161Thr) were incubated with a mixture of oxidised and reduced forms of CoA (CoASH and CoASSCoA, 1 mM final) in 20 mM Tris-HCl, pH 7.5 for 30 min at RT. The reaction was stopped by adding SDS gel-loading buffer without DTT, but containing 10 mM NEM. To examine whether binding of the 3′-phosphate ADP moiety of CoA to the Aurora A ATP binding-pocket co-ordinates the pantetheine thiol for disulfide bond formation with Cys 290, the in vitro CoAlation assay was carried out with 100 μM CoA and increasing concentrations of ATP (0–10 mM).
# T3 sequence (O14965 whole entry D274N): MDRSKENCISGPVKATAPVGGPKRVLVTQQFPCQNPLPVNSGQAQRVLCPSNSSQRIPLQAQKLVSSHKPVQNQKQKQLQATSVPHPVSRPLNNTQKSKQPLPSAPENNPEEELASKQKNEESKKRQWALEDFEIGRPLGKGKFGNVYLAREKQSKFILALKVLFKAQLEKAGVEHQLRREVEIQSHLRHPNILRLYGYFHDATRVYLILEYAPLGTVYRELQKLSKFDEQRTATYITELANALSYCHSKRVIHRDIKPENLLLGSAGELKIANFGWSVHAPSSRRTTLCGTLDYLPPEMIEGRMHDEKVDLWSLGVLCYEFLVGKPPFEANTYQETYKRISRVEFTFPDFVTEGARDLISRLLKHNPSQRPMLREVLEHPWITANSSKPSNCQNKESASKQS
# T5 sequence (Q96GD4 whole entry E161T): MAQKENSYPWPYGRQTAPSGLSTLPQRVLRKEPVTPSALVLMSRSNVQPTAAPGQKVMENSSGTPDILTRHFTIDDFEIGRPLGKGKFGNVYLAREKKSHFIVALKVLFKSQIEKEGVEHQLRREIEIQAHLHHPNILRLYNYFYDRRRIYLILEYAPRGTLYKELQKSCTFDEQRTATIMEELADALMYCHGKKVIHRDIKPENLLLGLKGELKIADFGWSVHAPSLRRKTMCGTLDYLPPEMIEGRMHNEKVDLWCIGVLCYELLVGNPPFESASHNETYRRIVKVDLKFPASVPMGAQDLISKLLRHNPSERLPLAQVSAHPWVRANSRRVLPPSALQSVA
# T2 sequence (O14965 whole entry C290A): as the sequence (O14965 whole entry D274N) above, with N274D, C290A counted along it
smiles,measurement,setting,value
"CC(C)(COP(=O)(O)OP(=O)(O)OC[C@H]1O[C@@H](n2cnc3c(N)ncnc32)[C@H](O)[C@@H]1OP(=O)(O)O)[C@@H](O)C(=O)NCCC(=O)NCCS [CoA, Coenzyme A]",Ligand-induced thermal shift,[1],completely abolished
same,Ligand binding / thermal stabilization,[2],deficient in CoA-induced thermal stabilization
same,Ligand interaction by thermal shift,[3],still able to interact
same,Change in thermal stability (ΔTm),[4],marked change in thermal stability
same,CoA binding (in vitro CoAlation),[5],strong binding
